From patent US20260345596A1, “TREATMENT OF LOCALLY ADVANCED OR METASTATIC UROTHELIAL CARCINOMA WITH ERDAFINITIB” (priority 2023, published 2026)
Entries after “also recorded” stand apart in the source; their conditions may differ.

Columns and labels:
[1] = clinical; details: human, in vivo, po
[2] = test system: rats; assay: 3-month repeat-dose toxicity study, female reproductive organs; details: exposure less than human AUC at maximum recommended dose
[3] = test system: locally advanced or metastatic urothelial carcinoma with FGFR alterations; assay: Study BLC3001 (NCT03390504, THOR) Cohort 1: efficacy of erdafitinib versus chemotherapy; type: in vivo, human
Procedure: Subjects are assigned to Cohort 1 or Cohort 2 based upon prior treatment with an anti-PD-(L)1 agent. […] Cohort 1 and Cohort 2 are assessed independently.
Each potential subject must satisfy all of the following criteria to be enrolled in the study: • 1. ≥18 years of age (or the legal age of consent in the jurisdiction in which the study is taking place) • 2. […] Minor components (<50% overall) of variant histology such as glandular or squamous differentiation, or evolution to more aggressive phenotypes such as sarcomatoid or micropapillary change are acceptable • 3. Metastatic or surgically unresectable urothelial cancer • 4. Documented progression of disease, defined as any progression that requires a change in treatment, prior to randomization • 5. Prior treatment with an anti-PD-(L)1 agent as monotherapy or as combination therapy; no more than 2 prior lines of systemic treatment. […] These subjects will however still be eligible only for Cohort 1.
Each dose should be taken at approximately the same time each day, with or without food. The study drug is to be taken with approximately 240 mL (8 ounces) of water. The tablets should be swallowed intact and subjects should not attempt to dissolve them in water, tablets must not be broken or chewed. Subjects should avoid consuming grapefruit or Seville oranges due to CYP450 3A4/5 inhibition.
No concomitant treatment is required for these subjects.
Subjects randomized to chemotherapy in Arm 1B (see FIG. 1) receive vinflunine 320 mg/m2 as a 20-minute intravenous infusion once every 3 weeks or docetaxel 75 mg/m2 as a 1-hour intravenous infusion every 3 weeks. Treatment with either agent will be administered until disease progression, intolerable toxicity, withdrawal of consent or decision by the investigator to discontinue treatment.
The primary endpoint is OS. The primary efficacy analysis is based on the Intent-to-Treat (ITT) population that includes all randomized subjects in each cohort. The Kaplan-Meier method is used to estimate the distribution of OS for each treatment group within each cohort. The stratified log-rank test is used to compare survival curves of OS between the 2 treatment arms. The stratification factors to be used in the analysis are as follows: region (North America vs EU vs rest of world), ECOG performance status (0 or 1 vs 2), and disease distribution (presence vs absence of visceral metastases: lung, liver, or bone). Pre-specified strata combining will be implemented when some strata have too few OS events.
The secondary efficacy endpoints are PFS, ORR (achievement of objective response), and Safety. Secondary end points also included DOR, change from baseline in patient reported outcomes (Functional Assessment of Cancer Therapy—Bladder Cancer, Patient-Global Impression of Severity, and the European Quality of Life—5 Dimensions—5 Levels). PFS is analyzed the same as OS. Kaplan-Meier method is used to estimate the distribution of DOR. ORR is analyzed by Cochran-Mantel-Haenszel chi-square test for randomized subjects with measurable disease at baseline. The analyses of the secondary efficacy endpoints include all randomized subjects (ITT subjects) unless otherwise specified. The family-wise type 1 error is strongly controlled at 5% (2-sided) for the secondary efficacy endpoints.
Ophthalmologic examination at baseline included an Amsler grid test, optical coherence tomography scan (OCT), and ophthalmologic evaluation. An Amsler grid test was conducted at every cycle. Repeat OCT was done as clinically indicated based on the Amsler grid test or clinical assessment.
O'Brien-Fleming boundaries were applied, implemented by the Lan-DeMets spending function for a total Type I error of 0.05. […] Stopping for futility was possible if the hazard ratio at the interim analysis exceeded 1.0, considering the totality of the data.
Descriptive subgroup analyses were conducted, but with no adjustment for multiplicity.

[4] = Protein binding in patients; details: human, in vivo
[5] = test system: FGFR phosphorylation and signaling; assay: FGFR phosphorylation and signaling in cell lines expressing FGFR genetic alterations; type: cell-based; details: cell lines with FGFR genetic alterations
[6] = test system: bacteria; assay: Bacterial reverse mutation (Ames) assay
[7] = Solubility
[8] = test system: QTc interval; assay: Cardiac electrophysiology: QTc interval in dose escalation and dose expansion study (187 patients); details: large effect = ≥20 ms
[9] = test system: cell lines expressing FGFR genetic alterations; assay: Cell viability of cell lines expressing FGFR genetic alterations; type: cell-based; details: cell lines with FGFR genetic alterations
[10] = Excretion after a single oral dose of radiolabeled erdafitinib; details: for dose excreted: human, in vivo, po

Q: Which results are given for COc1cc(OC)cc(N(CCNC(C)C)c2ccc3ncc(-c4cnn(C)c4)nc3c2)c1 [Erdafitinib, N-(3,5-dimethoxyphenyl)-N′-(1-methylethyl)-N-[3-(1-methyl-1H-pyrazol-4-yl)quinoxalin-6-yl]ethane-1,2-diamine]?
A: CL/F [1]: 6.03 mL/min; Vd/F [1]: 29 L; Effects on female reproductive organs [2]: showed effects on female reproductive organs (necrosis of the ovarian corpora lutea); Disease control rate (CR + PR + SD) ([3]; ITT): 112 (82.4%) n (%); Progression-free survival (PFS): number of events (%) ([3]; ITT): 101 (74.3%) number (%); Overall Survival (OS): number of events (%) ([3]; ITT, 8 mg oral once daily, up-titration to 9 mg, chemotherapy docetaxel or vinflunine): 77 (56.6%) number (%); Objective response rate, ORR (CR + PR) ([3]; ITT, RECIST v1.1, investigator): 62 (45.6%) n (%); OS events (deaths) ([3]; ITT, at data cut, ~75% information fraction, count): 77; PFS events ([3]; ITT, at data cut, count): 101; Not evaluable (NE) ([3]; ITT, best overall response): 10 (7.4%) n (%); Progressive disease (PD) ([3]; ITT, best overall response): 14 (10.3%) n (%); Complete response, CR (%) ([3]; ITT, best overall response, RECIST v1.1, investigator): 9 (6.6%) n (%); Complete response (CR) ([3]; ITT, investigator): 6.6%; Partial response (PR) ([3]; ITT, investigator): 39.0%; Patients alive at 6 months ([3]; estimated, (95% CI)): 85% (95% CI, 77 to 90); Patients alive at 12 months ([3]; estimated, (95% CI)): 51% (95% CI, 41 to 60); Median overall survival (years) ([3]; mUC and FGFR alt after prior anti-PD-(L)1): about 1 year; Improvement of disease control rate ([3]; versus chemotherapy): about 39%; Objective response outcome in words ([3]; versus chemotherapy): approximately a four-fold higher probability of achieving an objective response; also recorded: The superiority of Erdafitinib relative to chemotherapy, in terms of ORR, was established; also recorded: significantly greater for Erdafitinib, with similar DOR; also recorded: generally consistent in the subgroups evaluated; Overall survival outcome in words ([3]; versus chemotherapy): The superiority of Erdafitinib relative to chemotherapy, in terms of OS, was established; also recorded: generally consistent across clinically meaningful subgroups including age group, FGFR alteration type, baseline ECOG PS, presence/absence of visceral metastases and PD-L1 status; also recorded: significantly prolonged or extended OS compared to chemotherapy; also recorded: consistent across clinically relevant subgroups; also recorded: significantly longer with erdafitinib versus chemotherapy; also recorded: significantly prolonged median overall survival compared with chemotherapy; Progression-free survival outcome in words ([3]; versus chemotherapy): The superiority of Erdafitinib relative to chemotherapy, in terms of PFS, was established; also recorded: significantly prolonged PFS; also recorded: generally consistent in the subgroups evaluated; Confirmed complete response (CR) ([3]; ≥2 consecutive assessments): 5.1%; Confirmed partial response (PR) ([3]; ≥2 consecutive assessments): 30.1%; fraction unbound [4]: 0.003; FGFR phosphorylation and signaling [5]: inhibited FGFR phosphorylation and signaling; Mutagenicity (Ames) [6]: not mutagenic; Dose proportionality of exposure (Cmax and AUC) (0.5 to 12 mg, single and repeat once daily dosing): increased proportionally across the dose range of 0.5 to 12 mg; Effect of food on exposure (high-fat and high-calorie meal): No clinically meaningful differences in erdafitinib exposure; Time to steady state (once daily dosing): 2 weeks; Effect of age, sex, race, body weight, hepatic or renal impairment on exposure (specific populations): No clinically meaningful effects on erdafitinib exposure were observed based on age (21-92 years), sex, race (White, Hispanic or Asian), body weight (36-166 kg), mild (Child-Pugh A) or moderate (Child-Pugh B) hepatic impairment, or mild to moderate renal impairment (eGFR 30 to 89 mL/min/1.73 m^2); Solubility in organic solvents ([7]; organic solvents): practically insoluble, or insoluble to freely soluble in organic solvents; Solubility across the pH range of 1 to 7.4 ([7]; pH 1 to 7.4): adequate solubility across the pH range of 1 to 7.4; Solubility in aqueous media ([7]; wide range of pH values): slightly soluble to practically insoluble, or insoluble in aqueous media over a wide range of pH values; Effect on QTc interval [8]: no large effect (i.e., ≥20 ms) on the QTc interval; Cell viability [9]: decreased cell viability in cell lines expressing FGFR genetic alterations, including point mutations, amplifications, and fusions; Dose recovered in feces [10]: approximately 69%; Dose recovered in urine [10]: 19%; dose excreted ([10]; Dose recovered in feces as unchanged): 19%; dose excreted ([10]; Dose recovered in urine as unchanged): 13%
